This is an account of results in patent publication US7312336B2, “Compounds with analgesic effect” (AstraZeneca Canada Inc., priority 1996, dated 2007).

Counter-ions that a name gives are not always drawn.

Broadly, the melting point is the temperature, or range, at which the solid turns liquid.

One data set deals with δ receptor (Homo sapiens, UniProt P41143). The note with it: background statement; cited from earlier work.
Chain of δ receptor (P41143 whole entry): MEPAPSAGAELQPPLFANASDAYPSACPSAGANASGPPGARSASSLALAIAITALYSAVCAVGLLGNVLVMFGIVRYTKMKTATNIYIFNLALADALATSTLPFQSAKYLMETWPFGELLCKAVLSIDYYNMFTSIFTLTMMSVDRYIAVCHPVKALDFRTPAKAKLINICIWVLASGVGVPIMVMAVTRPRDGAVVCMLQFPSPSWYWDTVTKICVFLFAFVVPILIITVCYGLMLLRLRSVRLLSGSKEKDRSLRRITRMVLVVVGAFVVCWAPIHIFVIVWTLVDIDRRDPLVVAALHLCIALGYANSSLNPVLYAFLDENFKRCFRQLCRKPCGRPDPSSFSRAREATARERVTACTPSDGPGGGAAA
Regarding `Oc1ccc2c3c1O[C@H]1c4[nH]c5ccccc5c4C[C@@]4(O)[C@@H](C2)N(CC2CC2)CC[C@]314` [naltrindole], the “selectivity for the δ receptor vs. μ receptor binding” value is reported as less than 10 fold.

System in another data set: not given
Conditions: not given
Compound `CCN(CC)C(=O)c1ccc(C(O)(c2cccc3cccnc23)C2CCN(C(=O)OC(C)(C)C)CC2)cc1` (stereo not drawn) returned a melting point of 100 to 105 °C. Same read-out and setting: under `CCN(CC)C(=O)c1ccc(C(=C2CCNCC2)c2cccc(OC)c2)cc1` (as salt: HCl) stands > 90 °C (dec.); under `CCN(CC)C(=O)c1ccc(C(=C2CCN(Cc3ccccc3)CC2)c2ccc(Cl)cc2)cc1` (as salt: salt), 100 to 110 °C; under `CCN(CC)C(=O)c1ccc(C(=C2CCN(Cc3ccccc3)CC2)c2ccccc2)cc1` (as salt: HCl), 230 to 245 °C.

For `CCN(CC)C(=O)c1ccc(C(=C2CCN(Cc3ccc(Cl)cc3Cl)CC2)c2ccccc2)cc1` (as salt: HCl), the melting point was in the range of 95 to 110 °C. Regarding `CCN(CC)C(=O)c1ccc(C(=C2CCN(Cc3ccccc3)CC2)c2cccc(OC)c2)cc1` (as salt: HCl), the melting point lay in the range of 100 to 110 °C. As to `CCN(CC)C(=O)c1ccc(C(=C2CCNCC2)c2cccc3cccnc23)cc1` (as salt: HCl), the melting point is > 170 °C (dec.). `CCN(CC)C(=O)c1ccc(C(=C2CCN(Cc3ccc(OC)cc3)CC2)c2ccccc2)cc1` (as salt: HCl): the melting point is 100 to 110 °C. Take `CCN(CC)C(=O)c1ccc(C(O)(c2cccc(OC)c2)C2CCN(C(=O)OC(C)(C)C)CC2)cc1` (stereo not drawn): the melting point is 95 to 103 °C. In turn, `CCN(CC)C(=O)c1ccc(C(=C2CCN(C3CCCCC3)CC2)c2ccccc2)cc1` (as salt: HCl) came in with a melting point of 105 to 109 °C.

System in the next data set: not given
The note with it: background statement; cited from earlier work.
For the compound `Oc1ccc2c3c1O[C@H]1c4[nH]c5ccccc5c4C[C@@]4(O)[C@@H](C2)N(CC2CC2)CC[C@]314` [naltrindole], the analgesic activity entry was “no analgesic activity”.
